Assay results published in US6630161B1, “Adjuvant composition and methods for its use” (Ribi Immunochem Research, Inc., priority 1998, dated 2003).

Test: Histamine type response after intravenous administration of surfactants
Type: in vivo
Conditions: dogs

Row | Compound | response when administered intravenously
1 | CCCCCCCC/C=C\CCCCCCCC(=O)OCCOCC(OCCO)C1OCC(OCCO)C1OCCO (centres unmarked) [Tween 80] | histamine type response
2 | polysorbate 80 | histamine type response
